Results: US8802597B2, “Herbicidal pyrimidines” (E I du Pont de Nemours and Company, priority 2003, dated 2014)
Like-named read-outs stand apart in the source and are kept apart here.

Experiments:
Type in all cases: in vivo
[1] = system: rice (Oryza sativa); assay: Test B flooded paddy test; conditions: Oryza sativa, Flood, 1000 g ai/ha; scale 0 to 100; read-out: Plant response rating, Rice
How it was run: (§1)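 Rice, umbrella sedge, duck salad and barnyardgrass grown to 2-leaf stage under flooded paddy conditions and treated with formulated test chemicals. Kept in greenhouse 13–15 days, then visually rated against untreated controls on a 0–100 scale (0 no effect, 100 complete control).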

[2] = system: duck salad (Heteranthera limosa); assay: Test B flooded paddy test; conditions: Heteranthera limosa, Flood, 1000 g ai/ha; scale 0 to 100; read-out: Plant response rating, Ducksalad
How it was run: as §1

[3] = system: barnyardgrass (Echinochloa crus-galli); assay: Test B flooded paddy test; conditions: Echinochloa crus-galli, Flood, 1000 g ai/ha; scale 0 (no effect) to 100 (complete control); read-out: Plant response rating, Barnyardgrass
How it was run: as §1

[4] = system: umbrella sedge (Cyperus difformis); assay: Test B flooded paddy test; conditions: Cyperus difformis, Flood, 1000 g ai/ha; scale 0 to 100; read-out: Plant response rating, Sedge, Umbrella
How it was run: as §1

[5] = system: cocklebur (Xanthium strumarium); assay: Test B pre/postemergence; conditions: Xanthium strumarium; for pest or weed control at 125 g/ha: 125 g ai/ha; for pest or weed control at 500 g/ha: 500 g ai/ha
How it was run: (§2)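 Plants treated pre- or postemergence were compared visually with controls after 13 to 15 days. Ratings ran from 0, no effect, to 100, complete control.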

[6] = system: crabgrass (Digitaria sanguinalis); assay: Test B pre/postemergence; conditions: Digitaria sanguinalis; for pest or weed control at 125 g/ha: 125 g ai/ha; for pest or weed control at 500 g/ha: 500 g ai/ha
How it was run: as §2

[7] = system: wheat (Triticum aestivum); assay: Test B pre/postemergence; conditions: Triticum aestivum; for plant injury at 125 g/ha: 125 g ai/ha; for plant injury at 500 g/ha: 500 g ai/ha
How it was run: as §2

[8] = system: morningglory (Ipomoea coccinea); assay: Test B pre/postemergence; conditions: Ipomoea; for pest or weed control at 125 g/ha: 125 g ai/ha; for pest or weed control at 500 g/ha: 500 g ai/ha
How it was run: as §2

[9] = system: barnyardgrass (Echinochloa crus-galli); assay: Test B pre/postemergence; conditions: Echinochloa crus-galli; for pest or weed control at 125 g/ha: 125 g ai/ha; for pest or weed control at 500 g/ha: 500 g ai/ha
How it was run: as §2

[10] = system: corn (Zea mays); assay: Test B pre/postemergence; conditions: Zea mays
How it was run: as §2

[11] = system: Surinam grass (Brachiaria decumbens); assay: Test B pre/postemergence; conditions: Urochloa decumbens; for pest or weed control at 125 g/ha: 125 g ai/ha; for pest or weed control at 500 g/ha: 500 g ai/ha
How it was run: as §2

[12] = system: lambsquarters (Chenopodium album); assay: Test B pre/postemergence; conditions: Chenopodium album; for pest or weed control at 125 g/ha: 125 g ai/ha; for pest or weed control at 500 g/ha: 500 g ai/ha
How it was run: as §2

[13] = system: velvetleaf (Abutilon theophrasti); assay: Test B pre/postemergence; conditions: Abutilon theophrasti; for pest or weed control at 125 g/ha: 125 g ai/ha; for pest or weed control at 500 g/ha: 500 g ai/ha
How it was run: as §2

[14] = system: pigweed (Amaranthus retroflexus); assay: Test B pre/postemergence; conditions: Amaranthus retroflexus; for pest or weed control at 125 g/ha: 125 g ai/ha; for pest or weed control at 500 g/ha: 500 g ai/ha
How it was run: as §2

[15] = system: giant foxtail (Setaria faberii); assay: Test B pre/postemergence; conditions: Setaria faberi; for pest or weed control at 125 g/ha: 125 g ai/ha; for pest or weed control at 500 g/ha: 500 g ai/ha
How it was run: as §2

[16] = system: blackgrass (Alopecurus myosuroides); assay: Test B postemergence; conditions: Alopecurus myosuroides, post-emergence
How it was run: as §2

[17] = system: wild oat (Avena fatua); assay: Test B postemergence; conditions: Avena fatua, post-emergence
How it was run: as §2

Structure (SMILES): COC(=O)c1nc(C2CC2)nc(N)c1Cl [Compound 9, methyl 6-amino-5-chloro-2-cyclopropyl-4-pyrimidinecarboxylate]
- plant injury at 1000 g/ha [1]: 80%
- pest or weed control at 1000 g/ha [2]: 100%
- pest or weed control at 1000 g/ha [3]: 90%
- pest or weed control at 1000 g/ha [4]: 90%
- pest or weed control at 125 g/ha ([5]; post-emergence, Postemergence, scale 0 to 100 (0 no effect, 100 complete control), read-out: Cocklebur plant response rating): 100%
- pest or weed control at 500 g/ha ([5]; post-emergence, Postemergence, scale 0 to 100, read-out: Plant response rating, Cocklebur): 100%
- pest or weed control at 125 g/ha ([5]; pre-emergence, Preemergence, scale 0 to 100 (0 no effect, 100 complete control), read-out: Plant response rating, Cocklebur): 90%
- pest or weed control at 500 g/ha ([5]; pre-emergence, Preemergence, scale 0 to 100 (0 no effect, 100 complete control), read-out: Cocklebur plant response rating): 100%
- pest or weed control at 125 g/ha ([6]; post-emergence, Postemergence, scale 0 to 100 (0 no effect, 100 complete control), read-out: Crabgrass plant response rating): 90%
- pest or weed control at 500 g/ha ([6]; post-emergence, Postemergence, scale 0 to 100, read-out: Plant response rating, Crabgrass): 90%
- pest or weed control at 125 g/ha ([6]; pre-emergence, Preemergence, scale 0 to 100 (0 no effect, 100 complete control), read-out: Plant response rating, Crabgrass): 90%
- pest or weed control at 500 g/ha ([6]; pre-emergence, Preemergence, scale 0 to 100 (0 no effect, 100 complete control), read-out: Crabgrass plant response rating): 100%
- plant injury at 125 g/ha ([7]; post-emergence, Postemergence, scale 0 to 100 (0 no effect, 100 complete control), read-out: Wheat plant response rating): 40%
- plant injury at 500 g/ha ([7]; post-emergence, Postemergence, scale 0 to 100, read-out: Plant response rating, Wheat): 70%
- plant injury at 125 g/ha ([7]; pre-emergence, Preemergence, scale 0 to 100 (0 no effect, 100 complete control), read-out: Plant response rating, Wheat): 40%
- plant injury at 500 g/ha ([7]; pre-emergence, Preemergence, scale 0 to 100 (0 no effect, 100 complete control), read-out: Wheat plant response rating): 80%
- pest or weed control at 125 g/ha ([8]; post-emergence, Postemergence, scale 0 to 100 (0 no effect, 100 complete control), read-out: Morningglory plant response rating): 100%
- pest or weed control at 500 g/ha ([8]; post-emergence, Postemergence, scale 0 to 100, read-out: Plant response rating, Morningglory): 100%
- pest or weed control at 125 g/ha ([8]; pre-emergence, Preemergence, scale 0 to 100 (0 no effect, 100 complete control), read-out: Plant response rating, Morningglory): 100%
- pest or weed control at 500 g/ha ([8]; pre-emergence, Preemergence, scale 0 to 100 (0 no effect, 100 complete control), read-out: Morningglory plant response rating): 100%
- pest or weed control at 125 g/ha ([9]; post-emergence, Postemergence, scale 0 to 100 (0 no effect, 100 complete control), read-out: Barnyardgrass plant response rating): 90%
- pest or weed control at 500 g/ha ([9]; post-emergence, Postemergence, scale 0 to 100, read-out: Plant response rating, Barnyardgrass): 90%
- pest or weed control at 125 g/ha ([9]; pre-emergence, Preemergence, scale 0 to 100 (0 no effect, 100 complete control), read-out: Plant response rating, Barnyardgrass): 50%
- pest or weed control at 500 g/ha ([9]; pre-emergence, Preemergence, scale 0 to 100 (0 no effect, 100 complete control), read-out: Barnyardgrass plant response rating): 90%
- plant injury at 125 g/ha ([10]; post-emergence, Postemergence, 125 g ai/ha, scale 0 to 100 (0 no effect, 100 complete control), read-out: Corn plant response rating): 70%
- Corn plant response rating (crop injury, 0 = no effect, 100 = complete kill) at 500 g/ha ([10]; post-emergence, Postemergence, 500 g ai/ha, scale 0 to 100): 90%
- Corn plant response rating (crop injury, 0 = no effect, 100 = complete kill) at 125 g/ha ([10]; pre-emergence, Preemergence, 125 g ai/ha, scale 0 to 100 (0 no effect, 100 complete control)): 50%
- plant injury at 500 g/ha ([10]; pre-emergence, Preemergence, 500 g ai/ha, scale 0 to 100 (0 no effect, 100 complete control), read-out: Corn plant response rating): 80%
- pest or weed control at 125 g/ha ([11]; post-emergence, Postemergence, scale 0 to 100 (0 no effect, 100 complete control), read-out: Surinam Grass plant response rating): 90%
- pest or weed control at 500 g/ha ([11]; post-emergence, Postemergence, scale 0 to 100, read-out: Plant response rating, Surinam Grass): 90%
- pest or weed control at 125 g/ha ([11]; pre-emergence, Preemergence, scale 0 to 100 (0 no effect, 100 complete control), read-out: Plant response rating, Surinam Grass): 70%
- pest or weed control at 500 g/ha ([11]; pre-emergence, Preemergence, scale 0 to 100 (0 no effect, 100 complete control), read-out: Surinam Grass plant response rating): 90%
- pest or weed control at 125 g/ha ([12]; post-emergence, Postemergence, scale 0 to 100 (0 no effect, 100 complete control), read-out: Lambsquarters plant response rating): 90%
- pest or weed control at 500 g/ha ([12]; post-emergence, Postemergence, scale 0 to 100, read-out: Plant response rating, Lambsquarters): 100%
- pest or weed control at 125 g/ha ([12]; pre-emergence, Preemergence, scale 0 to 100 (0 no effect, 100 complete control), read-out: Plant response rating, Lambsquarters): 90%
- pest or weed control at 500 g/ha ([12]; pre-emergence, Preemergence, scale 0 to 100 (0 no effect, 100 complete control), read-out: Lambsquarters plant response rating): 100%
- pest or weed control at 125 g/ha ([13]; post-emergence, Postemergence, scale 0 to 100 (0 no effect, 100 complete control), read-out: Velvetleaf plant response rating): 100%
- pest or weed control at 500 g/ha ([13]; post-emergence, Postemergence, scale 0 to 100, read-out: Plant response rating, Velvetleaf): 100%
- pest or weed control at 125 g/ha ([13]; pre-emergence, Preemergence, scale 0 to 100 (0 no effect, 100 complete control), read-out: Plant response rating, Velvetleaf): 90%
- pest or weed control at 500 g/ha ([13]; pre-emergence, Preemergence, scale 0 to 100 (0 no effect, 100 complete control), read-out: Velvetleaf plant response rating): 100%
- pest or weed control at 125 g/ha ([14]; post-emergence, Postemergence, scale 0 to 100 (0 no effect, 100 complete control), read-out: Pigweed plant response rating): 100%
- pest or weed control at 500 g/ha ([14]; post-emergence, Postemergence, scale 0 to 100, read-out: Plant response rating, Pigweed): 100%
- pest or weed control at 125 g/ha ([14]; pre-emergence, Preemergence, scale 0 to 100 (0 no effect, 100 complete control), read-out: Plant response rating, Pigweed): 90%
- pest or weed control at 500 g/ha ([14]; pre-emergence, Preemergence, scale 0 to 100 (0 no effect, 100 complete control), read-out: Pigweed plant response rating): 100%
- pest or weed control at 125 g/ha ([15]; post-emergence, Postemergence, scale 0 to 100 (0 no effect, 100 complete control), read-out: Foxtail, Giant plant response rating): 90%
- pest or weed control at 500 g/ha ([15]; post-emergence, Postemergence, scale 0 to 100, read-out: Plant response rating, Foxtail, Giant): 90%
- pest or weed control at 125 g/ha ([15]; pre-emergence, Preemergence, scale 0 to 100 (0 no effect, 100 complete control), read-out: Plant response rating, Foxtail, Giant): 70%
- pest or weed control at 500 g/ha ([15]; pre-emergence, Preemergence, scale 0 to 100 (0 no effect, 100 complete control), read-out: Foxtail, Giant plant response rating): 80%
- pest or weed control at 125 g/ha ([16]; 125 g ai/ha, scale 0 to 100 (0 no effect, 100 complete control), read-out: Blackgrass plant response rating): 60%
- pest or weed control at 500 g/ha ([16]; 500 g ai/ha, scale 0 to 100, read-out: Plant response rating, Blackgrass): 80%
- pest or weed control at 125 g/ha ([17]; 125 g ai/ha, scale 0 to 100 (0 no effect, 100 complete control), read-out: Oat, Wild plant response rating): 20%
- pest or weed control at 500 g/ha ([17]; 500 g ai/ha, scale 0 to 100, read-out: Plant response rating, Oat, Wild): 70%
